Laboratory results reported in ChEMBL document CHEMBL4422630, “Identification of substituted 5-membered heterocyclic compounds as potential anti-leukemic agents” (Eur J Med Chem, 2019).
Active and inactive are the calls of the source. The calls are words filed in the database; no cut-off is given here.

Key:
[1] = Permeability of compound at pH 7.4 assessed as drug retention by PAMPA; type: ADME
[2] = Permeability of compound at pH 7.4 by PAMPA; type: ADME; conditions: read-out: Peff
MV4-11 = assay: Antiproliferative activity against human MV411 assessed as reduction in cell viability after 72 hrs by CellTiter-Glo assay; type: functional, cell-based; conditions: MV4-11, 72 h
UoC-B1 = assay: Antiproliferative activity against human UOCB1 assessed as reduction in cell viability after 72 hrs by CellTiter-Glo assay; type: functional, cell-based; conditions: UoC-B1, 72 h
B-ALL [3] = assay: Antiproliferative activity against mouse B-ALL BCR-ABL double knockout cells assessed as reduction in cell viability after 72 hrs by CellTiter-Glo assay; type: functional, cell-based
SUP-B15 [4] = assay: Antiproliferative activity against human SUP-B15 assessed as reduction in cell viability after 72 hrs by CellTiter-Glo assay; type: functional, cell-based; conditions: SUP-B15, 72 h
[5] = Therapeutic index, ratio of EC50 for human BJ cells to EC50 for mouse B-ALL cells expressing wild type BCR-ABL; type: toxicity; conditions: human BJ cells versus mouse B-ALL cells expressing wild type BCR-ABL; read-out: Ratio EC50
NALM-6 = assay: Antiproliferative activity against human NALM6 assessed as reduction in cell viability after 72 hrs by CellTiter-Glo assay; type: functional, cell-based; conditions: NALM-6, 72 h
B-ALL [6] = assay: Antiproliferative activity against mouse B-ALL cells expressing wild type BCR-ABL assessed as reduction in cell viability after 72 hrs by CellTiter-Glo assay; type: functional, cell-based
K562 = assay: Antiproliferative activity against human K562 assessed as reduction in cell viability after 72 hrs by CellTiter-Glo assay; type: functional, cell-based; conditions: K562, 72 h
BJ = assay: Antiproliferative activity against human BJ assessed as cell viability after 72 hrs by CellTiter-Glo assay; type: functional, cell-based
KOPN-8 [7] = assay: Antiproliferative activity against human KOPN8 assessed as reduction in cell viability after 72 hrs by CellTiter-Glo assay; type: functional, cell-based; conditions: KOPN-8, 72 h
[8] = Apparent permeability of compound form apical to basolateral side in human Caco2 cells; type: ADME, cell-based; conditions: Caco-2
[9] = Apparent permeability of compound form basolateral to apical side in human Caco2 cells; type: ADME, cell-based; conditions: Caco-2
[10] = Efflux ratio of apparent permeability across basolateral to apical side over apical to basolateral side in human Caco2 cells; type: ADME, cell-based; conditions: Caco-2
[11] = Half life in mouse plasma; type: ADME, cell-free
[12] = Half life in human plasma; type: ADME, cell-free
SUP-B15 [13] = assay: Induction of apoptosis in human SUP-B15 cells assessed as decrease in cell viability at […] after 24 hrs by ApoTox-Glo triplex assay; type: functional, cell-based
KOPN-8 [14] = assay: Induction of apoptosis in human KOPN8 cells assessed as decrease in cell viability at 5 uM after 24 hrs by Annexin V/propidium iodide staining-based flow cytometric analysis; type: functional
MDA-MB-231 [15] = assay: Cytotoxicity against human MDA-MB-231 cells at 30 uM after 24 hrs by propidium iodide staining-based fluorescence assay; type: functional, cell-based
SUP-B15 [16] = assay: Induction of apoptosis in human SUP-B15 cells assessed as late apoptotic cells level after 24 hrs by Annexin V and propidium iodide staining based flow cytometry (reference value: 13.5%); type: functional
[17] = Intrinsic clearance in human microsomes; type: ADME, Microsome
[18] = Protein binding in human plasma; type: ADME, cell-free; conditions: read-out: PPB (converted)
[19] = Half life in human microsomes; type: ADME, Microsome
KOPN-8 [20] = assay: Induction of apoptosis in human KOPN8 cells assessed as late apoptotic cells level after 24 hrs by Annexin V and propidium iodide staining based flow cytometry (reference value: 2%); type: functional
MDA-MB-231 [21] = assay: Cytotoxicity against human MDA-MB-231 cells up to 30 uM after 24 hrs by propidium iodide staining-based fluorescence assay; type: functional, cell-based
[22] = Half life in simulated gastric fluid; type: ADME
SUP-B15 [23] = assay: Induction of apoptosis in human SUP-B15 cells assessed as late apoptotic cells level after 24 hrs by Annexin V and propidium iodide staining based flow cytometry (reference value: 83%); type: functional
[24] = Protein binding in mouse plasma; type: ADME, cell-free; conditions: read-out: PPB (converted)
SUP-B15 [25] = assay: Induction of apoptosis in human SUP-B15 cells assessed as decrease in cell viability at 5 uM after 24 hrs by Annexin V/propidium iodide staining-based flow cytometric analysis; type: functional
SUM149PT = assay: Cytotoxicity against human SUM149 cells at 1 uM after 24 hrs by propidium iodide staining-based fluorescence assay relative to control; type: functional, cell-based
B-ALL [26] = assay: Induction of apoptosis in mouse B-ALL BCR-ABL double knockout cells assessed as increase in caspase 3/7 activity after 24 hrs by caspase-Glo 3/7 reagent based luminescence assay; type: functional, cell-based
SUP-B15 [27] = assay: Induction of apoptosis in human SUP-B15 cells assessed as increase in caspase 3/7 activity after 24 hrs by caspase-Glo 3/7 reagent based luminescence assay; type: functional, cell-based
[28] = Half life in mouse microsomes; type: ADME, Microsome
KOPN-8 [29] = assay: Cell cycle arrest in human KOPN8 cells assessed as reduction in accumulation of cells at G1/G0 phase at 5 uM after 24 hrs by propidium iodide staining-based flow cytometric analysis; type: functional
KOPN-8 [30] = assay: Cell cycle arrest in human KOPN8 cells assessed as increase in accumulation of cells at S phase at 5 uM after 24 hrs by propidium iodide staining-based flow cytometric analysis; type: functional
SUP-B15 [31] = assay: Cytotoxicity in human SUP-B15 cells assessed as decrease in cell viability after 24 hrs by bis-AAF-RF110 dye based assay; type: functional
[32] = Intrinsic clearance in mouse microsomes; type: ADME, Microsome
KOPN-8 [33] = assay: Induction of apoptosis in human KOPN8 cells assessed as late apoptotic cells level after 24 hrs by Annexin V and propidium iodide staining based flow cytometry (reference value: 96.4%); type: functional

CCCSc1ccc2nc(NC(=O)OC)[nH]c2c1 [ALBENDAZOLE]
permeability [1]: 44.1%
Papp [2]: 284 ×10⁻⁶ cm/s

CCN(CC)c1ccc(-n2cnnc2-c2cccc(O)c2)cc1
EC50 (MV4-11): 0.85 µM
EC50 (UoC-B1): 1.78 µM
EC50 (B-ALL [3]): > 49.1 µM
EC50 (SUP-B15 [4]): > 49.1 µM
selectivity ratio [5]: > 24
EC50 (NALM-6): 1.06 µM
EC50 (B-ALL [6]): 2.03 µM
EC50 (K562): 1.07 µM
EC50 (BJ): > 49.2 µM
EC50 (KOPN-8 [7]): > 49.1 µM

COc1ccc(-c2[nH]nc(C)c2-c2ccc(OC)c(O)c2)c(O)c1
EC50 (UoC-B1): 6.1 µM
EC50 (B-ALL [3]): 28.9 µM
EC50 (SUP-B15 [4]): > 43.3 µM
selectivity ratio [5]: > 5
EC50 (NALM-6): > 21.6 µM
EC50 (B-ALL [6]): 8.53 µM
EC50 (BJ): > 43.3 µM
EC50 (KOPN-8 [7]): 34.6 µM

NC(=O)N1c2ccccc2C=Cc2ccccc21 [CARBAMAZEPINE]
permeability [1]: 21.9%
Papp [2]: 266 ×10⁻⁶ cm/s
Papp A→B [8]: 52.4 ×10⁻⁶ cm/s
Papp B→A [9]: 41.8 ×10⁻⁶ cm/s
efflux ratio [10]: 0.8

CC1CC(OC(=O)C(O)c2ccccc2)CC(C)(C)N1C (stereo not drawn) [EUCATROPINE]
half-life [11]: 2.11 h
half-life [12]: 0.42 h

COc1ccc(O)c(C(=O)NCCc2ccc(-c3cnc(C)s3)cc2)c1
EC50 (MV4-11): > 10 µM
EC50 (UoC-B1): 24.7 µM
EC50 (B-ALL [3]): 22.7 µM
EC50 (SUP-B15 [4]): > 43.3 µM
EC50 (NALM-6): 1.01 µM
EC50 (B-ALL [6]): 9.49 µM
EC50 (BJ): 8.25 µM
EC50 (KOPN-8 [7]): 36.3 µM

c1ccc2[nH]c(-c3ccc(-c4nc5ccccc5[nH]4)nc3)nc2c1
EC50 (MV4-11): 13.7 µM
EC50 (UoC-B1): > 43.3 µM
EC50 (B-ALL [3]): 34.2 µM
EC50 (SUP-B15 [4]): 1.81 µM
selectivity ratio [5]: > 5
EC50 (NALM-6): 2.47 µM
EC50 (B-ALL [6]): 7.89 µM
EC50 (K562): 7.33 µM
EC50 (BJ): > 43.3 µM
EC50 (KOPN-8 [7]): 1.78 µM

O=C(Cc1ccccc1)Nc1ccc(-c2nc3cc(NC(=O)Cc4ccccc4)ccc3[nH]2)cc1
permeability [1]: 74.6%
Papp [2]: 204 ×10⁻⁶ cm/s
Activity (SUP-B15 [13]): Active
Activity (KOPN-8 [14]): Active
EC50 (MV4-11): 0.716 µM
Activity (MDA-MB-231 [15]): Active
Activity (SUP-B15 [16]): 18.6%
CLint scaled [17]: 5.85 mL/min/kg
fraction unbound [18]: 0.003
EC50 (UoC-B1): > 43.3 µM
half-life [19]: 3.56 h
Activity (KOPN-8 [20]): 18.5%
Activity (MDA-MB-231 [21]): inactive
EC50 (B-ALL [3]): 0.784 µM
half-life [22]: > 48 h
Activity (SUP-B15 [23]): 24.2%
fraction unbound [24]: 0.002
Activity (SUP-B15 [25]): Active
half-life [11]: > 48 h
Activity (SUM149PT): Active
half-life [12]: > 48 h
Activity (B-ALL [26]): inactive
Activity (SUP-B15 [27]): Active
EC50 (SUP-B15 [4]): 0.27 µM
selectivity ratio [5]: 13
half-life [28]: 5.44 h
EC50 (NALM-6): 4.24 µM
EC50 (B-ALL [6]): 0.635 µM
Papp A→B [8]: 0.206 ×10⁻⁶ cm/s
Activity (KOPN-8 [29]): Active
EC50 (K562): > 10 µM
Papp B→A [9]: 4.13 ×10⁻⁶ cm/s
EC50 (BJ): 8.35 µM
EC50 (KOPN-8 [7]): 0.18 µM
Activity (KOPN-8 [30]): Active
efflux ratio [10]: 20.1
Activity (SUP-B15 [31]): Active
CLint scaled [32]: 10.5 mL/min/kg
Activity (KOPN-8 [33]): 80.1%

COc1ccc(O)c(-c2cc(-c3ccc(Cl)cc3)[nH]n2)c1
EC50 (MV4-11): 0.65 µM
EC50 (UoC-B1): 10.6 µM
EC50 (B-ALL [3]): 27.8 µM
EC50 (SUP-B15 [4]): 5.23 µM
selectivity ratio [5]: > 5
EC50 (NALM-6): > 21.6 µM
EC50 (B-ALL [6]): 8.04 µM
EC50 (BJ): > 43.3 µM
EC50 (KOPN-8 [7]): 1.4 µM
